# Measured values published in patent US11439615B2, “Lipoxin and lipoxin analogue mediated neuroprotection and treatments” (University Health Network, priority 2017, dated 2022).
# Tests used:
# [1] = test system: HT22 cells; experiment: Glutamate challenge of HT22 neuronal cells, viability; format: cell-based; conditions: for protective activity of related molecules: up to 1 μM, glutamate challenged HT22 cells
# Method: An in vitro assay to recapitulate key aspects of the acute KA model was established. In this case, unconcentrated ACM was applied to the glutamate sensitive neuronal cell line HT22 (66, 67). Glutamate challenge of 5 mM was titrated to induce 60-80% cell death (ie: 20-40% survival). […] The media was concentrated for proteomic analyses.
# LXA4 and LXB4 promote direct neuroprotective signaling. To the inventor's knowledge, a role for lipoxins as direct neuroprotective or neurotrophic factors has not been reported. Although their established anti-inflammatory actions extend to the CNS (29-32). However, it was hypothesized they may have indirect protective effects. In order to test whether the protective activity was direct or indirect, LXA4 or LXB4 was applied to neuronal cells in an established in vitro assay.
# There is no established receptor for LXB4. However, LXB4 shares structural homology with LXA4 and the DHA-derived resolving D2 (RvD2), which mediate their actions via FPR2 or GPR18 (74), respectively. Therefore, it was assessed whether specific receptor antagonists for FPR2 or GPR18 could block LXB4 mediated protection.
# As shown in FIG. 14 lipoxin neuroprotection is dose responsive. Dose responses were generated for LXA4 (open circles) and LXB4 (closed circles) in HT22 cells exposed to glutamate stress, followed by nonlinear regression analyses.
# [2] = test system: primary cortical neurons; experiment: Primary cortical neurons under paraquat oxidative stress, neuron number; format: cell-based; conditions: n=5
# Text: Quantification of neuron number following oxidative stress from the redox cycling compound paraquat in primary cortical neurons.
# [3] = test system: HT22 cells; experiment: Mitosox mitochondrial oxidative stress in glutamate challenged HT22 cells; format: cell-based; conditions: 1 μM, HT22 cells challenged with glutamate, vs vehicle
# Method: HT22 cells challenged with glutamate were then assayed for mitochondrial oxidative stress using the Mitosox reagent, in combination with 1 μM LXA4, LXB4, and the LXA4 receptor ALX/FPR2 agonists Quinc-1 and Mmk-1.
# [4] = test system: retinal ganglion cell neurons (RGCs); experiment: Mouse acute retinal insult model (intravitreal kainic acid), RGC survival / GCL apoptosis; format: in vivo
# Method: Male C57BLL/6 mice, 4-6 weeks of age, were purchased from Taconic or Jackson labs. All experimental protocols were approved by the UHN and UC Berkeley ACUC in accordance with applicable regulations. Mice were anesthetized by intraperitoneal injection of ketamine/xylazine. Intravitreal injections with 10 mM kainic acid (KA) were performed as previously described (45). Briefly, a 30-gauge needle was inserted tangentially into the vitreous and replaced with a Hamilton syringe to inject a volume of 2 μL, followed by application of ophthalmic antibiotic ointment (BNP, Vetoquinol). In some experiments, 10× concentrated ACM or test compounds were injected intravitreally one hour prior to the KA injection in concentrations as follows: LXA4 and LXB4 at 10 μM, Zileuton at 2 μg/ul, and WRW4 at 15 μM, all dissolved in PBS. Mice were euthanized by CO2 asphyxiation 18 hours post KA treatment and the eyes fixed in 4% paraformaldehyde. In all experiments n refers to the number of animals tested.
# To quantify the extent of apoptosis, a well-established method was used to count the number of TUNEL-positive nuclei in the ganglion cell layer (GCL) and expressed it as a fraction of the total GCL nuclei (50-54). TUNEL labeling was performed according to the manufacturer's instructions (DeadEnd; Promega). Briefly, cryostat sections were fixed with 4% PFA for 5 minutes and washed in PBS. Equilibration buffer was added, and rTdT reaction mix was applied to each slide and incubated at 37° C. for 60 min. Following the rTdT reaction, slides were washed in 2×SSC and PBS and finally mounted with glycerol-based medium. For RGC survival, RBPMS-positive cells in the GCL were counted and expressed as a fraction of GCL nuclei. For each eye, at least five central retinal sections were analyzed at the level of the optic nerve stretching to each ora serrata, and the results averaged, as previously described (42).
# In order to test the influence of the transplanted cells on inner retinal pathology, RA's were transplanted as above. After 16 days retinas were challenged with an acute metabolic injury by injection of kainic acid (KA). […]
# Retinal astrocyte neuroprotection is mediated through secreted factors that include a small molecule component enriched in LXA4 and LXB4. […] This time, survival of RGCs was specifically assessed by probing for the selective marker RBPMS, along with complementary TUNEL staining, and quantified as previously. As expected, extensive RGC loss was detected in KA challenged eyes injected with cell-free control media incubated under the same conditions as ACM (FIG. 2A). […]
SMILES,protective activity of related molecules [1],neuron number following oxidative stress from paraquat [2],also measured
"CCCCC[C@H](O)/C=C/C=C\C/C=C\C/C=C\CCCC(=O)O [15-HETE, reference compound]",no protective activity,no protection,–
"C=C(C)[C@@H]1CCC(C)=C[C@H]1c1c(OC)cc(C)cc1OC [O-1918, reference compound]",–,–,"block of LXB4 protective activity by receptor antagonist ([1]; LXB4 at 500 nM, increasing μM concentrations of antagonist): did not block LXB4 protective activity"
"CCCCOc1ccc(C(=O)NN2C(=O)c3ccccc3NC2c2ccc(OC)cc2)cc1 (centres unmarked) [Quinc-1, reference compound]",–,–,mitochondrial oxidative stress (Mitosox) [3]: reduce mitochondrial oxidative stress
"CC/C=C\C[C@H](O)[C@H](O)/C=C/C=C/C=C\C=C\[C@@H](O)C/C=C\CCC(=O)O [RvD2, reference compound]",no protective activity,no protection,–
"CC(c1cc2ccccc2s1)N(O)C(N)=O (centres unmarked) [Zileuton, reference compound]",–,–,"exacerbation of RGC loss in response to KA challenge compared to vehicle ([4]; intravitreal inhibitor prior to KA, Zileuton 10 μM or 2 μg/ul, WRW4 15 μM): 60%; effect on RGC numbers, drug alone ([4]; uninjured (naive) eyes, intravitreal, no KA, RBPMS counts): no effect"
